Literature values as cited in patent publication US20150342920A1, “DERMATOLOGICAL COMPOSITIONS COMPRISING AT LEAST ONE RETINOID COMPOUND, AN ANTI-IRRITANT COMPOUND AND BENZOYL PEROXIDE” (GALDERMA RESEARCH & DEVELOPMENT, priority 2007, published 2015).

## O=C(OOC(=O)c1ccccc1)c1ccccc1 [benzoyl peroxide]
In solution, ethanol, propylene glycol and mixtures of PEG 400 and water, depends on type and concentration of solvent
  degradation of benzoyl peroxide in solution: degrades more or less rapidly
In suspension (disperse form) in water and in propylene glycol, after 90 days of storage
  degradation of benzoyl peroxide in suspension: not degraded
